Columns and labels:
HepG2 cells = test: Cytotoxicity assay (CellTiter-Glo); type: cell-based, human; conditions: HepG2, 24 h
Experimental: HepG2 cells (1 × 10^4/well in 25 μl phenol red-free DMEM supplemented with 5% charcoal/dextran-treated FBS) were plated and treated as in the transactivation assays. After 24 h compound treatment, the CellTiter-Glo Luminescent Cell Viability Assay (Promega) and an EnVision microplate reader were used to assess cytotoxicity. DMSO wells with cells served as negative controls, and wells without cells served as positive controls. The averaged luminescence signal of the wells without cells was subtracted from the luminescence signals of all other wells, and the background subtracted values were normalized to DMSO-treated wells containing cells to obtain percent cell viability.

CMV promoter = test: CMV-Renilla luciferase reporter; type: cell-based, human; conditions: HepG2, 24 h; fold change relative to DMSO
Experimental: HepG2 cells (7.5 × 10^5/well) were plated in six-well tissue culture-treated plates. The following day, cells were co-transfected with pGL3-CYP3A4-luc (2 μg/well), pRL-CMV (200 ng/well) and 100 ng/well of either empty vector (pcDNA3), pcDNA3-FLAG-PXR, pCMV6-mPXR or pGL4.53-PGK-PXR using Lipofectamine 3000 (Thermo Fisher Scientific). Twenty-four hours after transfection, cells were trypsinized and suspended in phenol red-free DMEM (Thermo Fisher Scientific) supplemented with 5% charcoal/dextran-treated FBS (HyClone), and 1 × 10^4 cells/well in 25 μl media were added to white 384-well plates. […] After 24 h, the Dual-Glo Luciferase Assay System (Promega) and EnVision microplate reader (PerkinElmer) were used to measure firefly and Renilla luciferase activities. CMV-driven Renilla luciferase was used as an indicator of general transcriptional modulation by the test compounds and is plotted as fold change (FC) relative to DMSO controls. Assays utilizing pGL4.54[luc2/TK], pGL4.53[luc2/PGK], or pGL4.13[luc2/SV40] were similarly performed and normalized.

PXR LBD = target: T1, PXR LBD (Homo sapiens, UniProt O75469); test: Cellular PXR LBD SRC-1 recruitment assay (NanoBiT); type: cell-based; conditions: HepG2, NanoBiT, 30 min; 100 nM T0901317 or 5 μM other compound
T1 construct: pcDNA3-SmBiT-PXR LBD (residues 139–434); expressed in transfected cells; host or cells: HepG2
T1 sequence (O75469 139-434): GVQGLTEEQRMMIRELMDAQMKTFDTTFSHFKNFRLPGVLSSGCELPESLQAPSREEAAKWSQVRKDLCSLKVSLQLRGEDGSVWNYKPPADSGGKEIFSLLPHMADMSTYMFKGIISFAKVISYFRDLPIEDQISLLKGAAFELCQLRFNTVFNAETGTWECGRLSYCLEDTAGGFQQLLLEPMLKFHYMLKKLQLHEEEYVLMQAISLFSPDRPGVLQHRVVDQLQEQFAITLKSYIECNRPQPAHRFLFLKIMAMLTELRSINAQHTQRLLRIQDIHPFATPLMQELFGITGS
T1 sequence (Q15788 621-765 partner limits assumed): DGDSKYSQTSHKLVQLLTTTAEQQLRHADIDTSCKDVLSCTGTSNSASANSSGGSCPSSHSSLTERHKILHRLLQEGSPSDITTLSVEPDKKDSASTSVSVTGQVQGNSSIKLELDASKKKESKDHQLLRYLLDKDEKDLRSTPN
Experimental: Nano Luciferase Binary Technology (NanoBiT) ([33]) was used to assess the interaction of SRC-1 with PXR LBD in HepG2 cells (Supplementary Figure S4). […] The following day, cells were co-transfected with pcDNA3-SmBiT-PXR LBD (100 ng/well) and pcDNA3-LgBiT-SRC-1 (100 ng/well) using Lipofectamine 3000. Empty vector (pcDNA3, 800 ng/well) was used as carrier DNA due to the low amounts of expression plasmids used. […] After 24 h, 5 μl media containing 2.5% DMSO, 5X Nano-Glo Live Cell Substrate from the Nano-Glo Live Cell Assay System (Promega), and 5× concentration of compound was added, resulting in 0.5% DMSO and either 100 nM T0901317 or 5 μM other compound. The plates were incubated for 30 min at RT, and Nano Luciferase activity was then measured with an EnVision microplate reader.

[1] = LC–MS/MS test of JQ1 stability in crystallization solution; type: physicochemical; conditions: 1 μM JQ1, crystallization solution pH 7.4, 20°C
Experimental: An Echo 650 Acoustic Liquid Handler was used to dispense 50 nl/well of 1 mM JQ1 into 96-well assay plates (Corning Inc., one plate per time point, six replicate wells per time point). Crystallization solution (50 μl) was added to each well to yield final concentrations of 1 μM JQ1 and 0.1% DMSO. […] This composition matched the final composition of a crystallization drop containing a 1:1 ratio of protein to reservoir solution. To the 0-day plate, 100 μl cold acetonitrile (ACN) containing 400 ng/ml warfarin (Fluka Chemical Corporation) as the internal standard was immediately added to each well. The remaining plates were incubated at 20°C for 1–8 days followed by quenching with 100 μl cold ACN containing 400 ng/ml warfarin. Quenched samples were sealed and stored at -20°C until analysis. On the day of analysis, plates were thawed, shaken at 600 rpm for 10 min, and centrifuged at 2000 × g for 10 min. The supernatants (20 μl) were transferred to a new analytical 96-well plate (Corning Inc.) and diluted with 180 μl 50% ACN in Milli-Q water. Chromatographic separation was performed on an ACQUITY UPLC BEH C18 column (1.7 μm, 2.1 mm × 50 mm) (Waters Corporation) using the Triple Quad 6500 System (AB Sciex). The injection volume was 7 μl. […] Data were acquired using Analyst Software (AB Sciex, version 1.6.3) and analyzed using MultiQuant Software (AB Sciex, version 3.0.3).

Cc1sc2c(c1C)C(c1ccc(Cl)cc1)=N[C@@H](CC(=O)OC(C)(C)C)c1nnc(C)n1-2 [JQ1, (+)-JQ1]
cytotoxicity (cell viability) (HepG2 cells): exhibited cytotoxicity at the concentrations required to activate the CYP3A4-luciferase reporter | CMV-Renilla luciferase reporter expression (CMV promoter): robustly activated Renilla luciferase expression from a CMV promoter | SRC-1 recruitment to PXR LBD in cells (PXR LBD): JQ1 > birabresib > CPI-203 | stability in the crystal growth condition [1]: does not degrade over a period of eight days

Reference: paper PMC10899790, “A bromodomain-independent mechanism of gene regulation by the BET inhibitor JQ1: direct activation of nuclear receptor PXR” (Nucleic Acids Research, 2023)
